Laboratory results as given in paper PMC7700664, “In Vitro and Ex Vivo Evaluation of Penetratin as a Non-invasive Permeation Enhancer in the Penetration of Salmon Calcitonin through TR146 Buccal Cells and Porcine Buccal Tissues” (Pharmaceuticals, 2020).
Each block holds one substance with its values, some of them ahead of it.

How the values were obtained:
[1] = tested on: TR146 cells; assay: FITC-Penetratin and Alexa 647-sCT internalization in TR146 cells (flow cytometry); assay type: cell-based, human; conditions: 2 h, FACS
Protocol: For the internalization of FITC-Penetratin and Alexa 647-sCT, Alexa 647-sCT was synthesized. Alexa-647 and sCT were left at room temperature for 2 h to react, and the reaction was terminated using ammonium chloride. Purification of Alexa 647-sCT was done through dialysis.
TR146 cells were seeded in a 6-well culture plate and confocal dish at a density of 5.0 × 10^5 cells per well, and incubated for 24 h at 37 °C in 5 % CO2. To determine the concentration at which optimal intracellular uptake of Penetratin occurs, FITC-Penetratin at 2.5, 5, 10, 15, 20, 30, and 40 μM were added and incubated for 2 h.
To confirm the effect of Penetratin on intracellular uptake of sCT, 1.22, 6.10 and 12.2 μM of FITC-Penetratin were added to 40 μg of Alexa 647-sCT and incubated for 2 h at 37 °C. For the energy-independent internalization of Penetratin, 40 μg of Alexa 647-sCT and 12.2 μM of FITC-Penetratin were added and incubated for 2 h at 4 °C (energy-abolishing condition) and 37 °C (biological condition). After 2 h, imaging study with flow cytometry (BD FACSverse; Becton Dickinson, Heidelberg, Germany) and confocal laser scanning microscopy (LSM 800, Zeiss, Oberkochen, Germany) were performed.
TR146 cells were treated with a pre-determined amount of FITC-Penetratin and Alexa 647-sCT in a 6-well culture plate. […]

[2] = tested on: TR146 cell layer; assay: In vitro cell permeation study (Transwell); assay type: in vitro ADME, human; parameters: Kp (permeability coefficient): unit not given here; conditions: 40 μg sCT; for Kp (permeability coefficient) / ER (enhancement ratio): TR146 Transwell; for Kp (permeability coefficient) / Js (flux): apical to basolateral, HBSS-HEPES, 37 °C, mean ± SD n = 3; for Kp (permeability coefficient): ELISA, Kp = Js/Cd; for Js (flux): TR146 layer on 12-well Transwell, 28–30 days culture, sampling 0.5–8 h, sCT ELISA
Protocol: (§1) TR146 cell was seeded in a 12-well Transwell insert (Corning Inc., Corning, NY, USA) at a density of 5 × 10^4 cells per cm^2, and the medium was changed every 2 days for 28–30 days. The experiment was conducted from apical to basolateral and HBSS-HEPES buffer was used as media. Forty micrograms of sCT and 1.22, 6.10, and 12.2 μM of Penetratin were added to apical chamber and kept at 37 °C. 500 μL of sampling was obtained at 0.5, 1, 2, 4 and 8 h. Transepithelial electrical resistance (TEER) value was measured before and after the experiment. TEER was calculated with the following Equation (1), where Rinsert with cell, Rinsert without cell, and A were insert filter areas. The permeated amount of sCT was analyzed using an sCT ELISA kit (Phoenix Pharmaceuticals, Burlingame, CA, USA):TEER = (Rinsert with cell − Rinsert without cell) × A(1)
(§2) The flux (Js) was calculated using the following Equation (2), where t (h) was permeation time, A( cm^2 ) was permeation area, and Qr (ng) was the permeated amount of sCT, (2) Js=Qr/A·t(ng·cm^−2·h^−1) Kp was calculated with the following Equation (3), (3) Kp=Js/Cd([…]) where Js was the flux from the steady state (ng⋅cm^−2⋅h^−1) and Cd was the initial concentration in the donor chamber (ng⋅cm^−3). Finally, the enhancement ratio (ER) was obtained by dividing the Kp value of each formulation with that of the control.

[3] = tested on: TR146 cell layers; assay: TEER before and after permeability experiments; assay type: cell-based, human; conditions: for TEER Value After: after permeability experiment (8 h, 37 °C); for TEER Value After / TEER Value Before: TR146 cell layers on Transwell; for TEER Recovery: after vs before permeability experiment, TR146 cell layers; for TEER Value Before: before permeability experiment
Protocol: as §1

[4] = tested on: porcine buccal tissues; assay: Ex vivo buccal tissues permeation (Franz diffusion cell); assay type: in vitro ADME; conditions: 40 μg sCT; for Kp (permeability coefficient) / Js (flux): porcine buccal epithelium, 37 °C, mean ± SD n = 3; for Kp (permeability coefficient): Franz cell, pH 7.4 PBS, ELISA, Kp = Js/Cd; for Js (flux): Franz diffusion cell, area 2.0 cm^2, receptor 12.5 mL pH 7.4 PBS, 600 rpm, 8 h, sCT ELISA; for ER (enhancement ratio): porcine buccal tissue
Protocol: Buccal pre-treatment was performed according to the experimental method of Oh et al.. Briefly, porcine buccal tissues were immediately collected after pigs were sacrificed from a local slaughterhouse. Adipose and connective tissues were removed from buccal mucosa using surgical scissors. To obtain buccal epithelium, tissues were put in pH 7.4 PBS at 60 °C for 1 min. They were evaluated in the following in vitro permeation study.
Buccal permeability of sCT was evaluated using the Franz diffusion cell. The permeation area was 2.0 cm^2, and the volume of receptor media was 12.5 mL. The receptor was filled with pH 7.4 PBS and stirred at 600 rpm at 37 °C. The Franz diffusion cell was equilibrated for 30 min after mounting the buccal epithelium. Forty micrograms of sCT and of 1.22, 6.10 and 12.2 μM of Penetratin, of which molecular ratios were 1:0.1, 1:0.5 and 1:1 in donor part, respectively, were added to the Franz diffusion cell. Half of a milliliter of sample was obtained at different time intervals (1, 2, 4, and 8 h) from the receptor part and analyzed by a sCT ELISA kit (Phoenix Pharmaceuticals, Burlingame, CA, USA).
as §2

[5] = no reference given for the value; cited from earlier work
Protocol: Penetratin is one of the most promising CPPs. Penetratin has positively charged amino acids such as lysine and arginine, and hydrophobic amino acids. Various cargoes were delivered by overcoming the barrier of the cell membrane, but the mechanism of CPPs and Cargo delivery through the cell membrane is still unclear. There is a possible explanation. At pH 7.4, where permeation and cell uptake experiments were conducted, sCT with a pI of 10.4 and penetratin have a positive charge, so there is no ionic interaction between penetratin and sCT. Penetratin and sCT form a hydrophobic interactio ...

[6] = Penetratin 1.22 μM, Kp of formulation divided by Kp of control
[7] = Penetratin 6.10 μM, Kp of formulation divided by Kp of control

Substance: FITC-Penetratin: FITC labeled Penetratin, purchased from Peptron
- internalization of FITC-Penetratin at 4 °C ([1]; 12.2 μM FITC-Penetratin + 40 μg Alexa 647-sCT, 4 °C): confirmed
- relative MFI of FITC-Penetratin (internalization) versus concentration ([1]; FITC-Penetratin 2.5–40 μM, 37 °C, n = 3): increased steeply from 2.5 to 15 μM, but increased more gradually from 15 to 40 μM

- Kp (permeability coefficient) ([2]; Penetratin 0 μM (control)): 0.201 ± 0.007
- Js (flux) ([2]; Penetratin 0 μM (control)): 16.091 ± 0.560 ng·cm^−2·h^−1
- Kp (permeability coefficient) ([2]; Penetratin 1.22 μM): 0.275 ± 0.041
- ER (enhancement ratio) [2, 6]: 1.4
- Js (flux) ([2]; Penetratin 1.22 μM): 22.004 ± 3.247 ng·cm^−2·h^−1
- Kp (permeability coefficient) ([2]; Penetratin 6.10 μM): 0.676 ± 0.063
- ER (enhancement ratio) [2, 7]: 3.4
- Js (flux) ([2]; Penetratin 6.10 μM): 54.075 ± 5.053 ng·cm^−2·h^−1
- Kp (permeability coefficient) ([2]; Penetratin 12.2 μM): 1.115 ± 0.140
- ER (enhancement ratio) ([2]; Penetratin 12.2 μM, Kp of formulation divided by Kp of control (text: fold increase of Js/flux)): 5.5
- Js (flux) ([2]; Penetratin 12.2 μM): 89.190 ± 11.227 ng·cm^−2·h^−1
- TEER Value After ([3]; 40 μg sCT + Penetratin 0 μM): 60.48 ± 5.88 Ω·cm^2
- TEER Value After ([3]; 40 μg sCT + Penetratin 1.22 μM): 59.73 ± 2.94 Ω·cm^2
- TEER Value After ([3]; 40 μg sCT + Penetratin 6.10 μM): 60.11 ± 6.00 Ω·cm^2
- TEER Value After ([3]; 40 μg sCT + Penetratin 12.2 μM): 61.60 ± 6.62 Ω·cm^2
- TEER Recovery ([3]; 40 μg sCT + Penetratin 0 μM): 96.31 ± 1.78%
- TEER Recovery ([3]; 40 μg sCT + Penetratin 1.22 μM): 94.21 ± 1.90%
- TEER Recovery ([3]; 40 μg sCT + Penetratin 6.10 μM): 98.17 ± 2.64%
- TEER Recovery ([3]; 40 μg sCT + Penetratin 12.2 μM): 96.52 ± 4.97%
- TEER Value Before ([3]; group 40 μg sCT + Penetratin 0 μM): 62.72 ± 5.20 Ω·cm^2
- TEER Value Before ([3]; group 40 μg sCT + Penetratin 1.22 μM): 63.47 ± 3.99 Ω·cm^2
- TEER Value Before ([3]; group 40 μg sCT + Penetratin 6.10 μM): 61.23 ± 6.00 Ω·cm^2
- TEER Value Before ([3]; group 40 μg sCT + Penetratin 12.2 μM): 63.84 ± 6.42 Ω·cm^2
- Kp (permeability coefficient) ([4]; Penetratin 0 μM (control)): 0.005 ± 0.000 cm·h^−2 × 10^−3
- Js (flux) ([4]; Penetratin 0 μM (control)): 0.208 ± 0.018 ng·cm^−2·h^−1
- Js (flux) ([4]; Penetratin 1.22 μM (sCT:Penetratin 1:0.1)): 1.973 ± 0.660 ng·cm^−2·h^−1
- Kp (permeability coefficient) ([4]; Penetratin 1.22 μM): 0.049 ± 0.017 cm·h^−2 × 10^−3
- ER (enhancement ratio) [4, 6]: 9.5
- Js (flux) ([4]; Penetratin 6.10 μM (sCT:Penetratin 1:0.5)): 6.707 ± 0.832 ng·cm^−2·h^−1
- Kp (permeability coefficient) ([4]; Penetratin 6.10 μM): 0.168 ± 0.021 cm·h^−2 × 10^−3
- ER (enhancement ratio) [4, 7]: 32.2
- Js (flux) ([4]; Penetratin 12.2 μM (sCT:Penetratin 1:1)): 19.507 ± 1.794 ng·cm^−2·h^−1
- Kp (permeability coefficient) ([4]; Penetratin 12.2 μM): 0.488 ± 0.045 cm·h^−2 × 10^−3
- ER (enhancement ratio) ([4]; Penetratin 12.2 μM, Kp of formulation divided by Kp of control (text: fold increase of flux / permeated amount)): 93.7
Substance: Salmon calcitonin [sCT]
- pI [5]: 10.4
